{"source": "patent US10098852B2", "about": "(LAUNX BIOMEDICAL CO., LTD., priority 2014, dated 2018)", "key": {"[1]": {"test_system": "TSGH (bladder cancer cell line)", "experiment": "Cell viability analysis (WST-1), bladder cancer cell line TSGH", "type": "cell-based", "method": "(§1) The cell numbers were counted and reseed as 2×10^6 in cell culture plate/flask. Then, the culture medium was added to a volume of 10 ml, and the cells were cultured for 2-3 days. Then, the cells were suspended for loading into 96-well plates. The cell number was 3000/well and the volume of the culture medium was 100 μl each well.\n(§2) Removing the original culture medium from 96-well plate. Then add 100 μl of commercially drug at a concentration of 10 μM per well. After 72 hours, add the diluted WST-1 reagent to the well with 100 μl/well, and the diluted WST-1 reagent was acquired from the dilution of 9:1 medium and WST-1 stock reagent. Finally, the total volume of each well was 200 μl/well. Culture the 96-well plate at 37° C. for 30 to 90 minutes. Detecting and calculate the survival rate of each cancer cells with an ELISA reader at OD450 nm."}, "[2]": {"test_system": "HeLa (Cervix Adenocarcinoma)", "experiment": "Cell viability analysis (WST-1), cervical cancer cell line HeLa", "type": "cell-based", "details": "Homo sapiens", "method": "as §1, §2"}, "[3]": {"test_system": "C-33A (Cervical carcinoma)", "experiment": "Cell viability analysis (WST-1), cervical cancer cell line C-33A", "type": "cell-based", "details": "Homo sapiens, 72 h", "method": "as §1, §2"}, "[4]": {"test_system": "MCF7 (Mammary Gland, Adenocarcinoma)", "experiment": "Cell viability analysis (WST-1), breast cancer cell line MCF7", "type": "cell-based", "details": "Homo sapiens", "method": "as §1, §2"}, "[5]": {"test_system": "HepG2 (hepatocellular carcinoma)", "experiment": "Cell viability analysis (WST-1), hepatic cancer cell line HepG2", "type": "cell-based", "details": "Homo sapiens", "method": "as §1, §2"}, "[6]": {"test_system": "U2OS (osteosarcoma cell line)", "experiment": "Cell viability analysis (WST-1), osteosarcoma cell line U2OS", "type": "cell-based", "details": "Homo sapiens", "method": "as §1, §2"}, "[7]": {"test_system": "prostate cancer cell", "experiment": "Summary of the effect on prostate cancer cell (PC-3, LNCap)", "type": "cell-based", "details": "Homo sapiens, prostate cancer cell (mean of PC-3 and LNCap averages), 72 hours, read-out: Inhibitory effect", "method": "as §2"}, "[8]": {"test_system": "gastric cancer cell", "experiment": "Summary of the effect on gastric cancer cell (AGS, MKN-45)", "type": "cell-based", "details": "Homo sapiens, gastric cancer cell (mean of AGS and MKN-45 averages), 72 hours, read-out: Inhibitory effect", "method": "as §2"}, "[9]": {"test_system": "pancreatic cancer cell", "experiment": "Summary of the effect on pancreatic cancer cell (AsPC-1, BxPC-3)", "type": "cell-based", "details": "pancreatic cancer cell (mean of AsPC-1 and BxPC-3 averages), 72 hours, read-out: Inhibitory effect", "method": "as §2"}, "[10]": {"test_system": "skin cancer cell", "experiment": "Summary of the effect on skin cancer cell (A375, BCC)", "type": "cell-based", "details": "Homo sapiens, A-375, skin cancer cell (mean of A375 and BCC averages), 72 hours, read-out: Inhibitory effect", "method": "as §2"}, "[11]": {"experiment": "Animal model test of gastric cancer: body weight and survival", "type": "in vivo, mice (BALB/cAnN.Cg-Foxn1nu/CrlNarl)", "details": "for weight: individual mice A, B, C", "method": "In this invention, the female mice were (BALB/cAnN.Cg-Foxn1^nu/CrlNarl) purchased from National Laboratory Animal Center (Taiwan)). The weight of the mice were 21±1 g. These mice were subcutaneously injected with gastric cancer cells (AGS) and then put these mice into different cages at random. The drug test experiment was divided into three groups, include “control group”, “low dose group (100 mg/kg/day)”, and “high dose group (200 mg/kg/day)”. These mice were then injected test drug intraperitoneally once daily […]. The tumor sizes and body weight were measured twice a week. The tumor sizes were measured and calculated by formula: (L×W^2)/2. L represents the tumor longest length. W represents the tumor shortest diameter."}, "[12]": {"details": "72 h, average of 4 tests, read-out: inhibition effect (survival rate of cells), average"}}, "note": "Several values for one entry are separate records, joined by “and”; a condition that tells them apart may be missing. Equal values may be shown once. Read-outs that look alike come from different tables or passages of the source.", "data": [{"molecule": "Oc1ccc(OCc2ccccc2)cc1", "note": "[Monobenzone]", "values": [{"measurement": "viability at 10 µM", "setting": "[1]; [12]", "result": 84.6, "unit": "%"}, {"measurement": "viability at 10 µM", "setting": "[1]; 72 hours, test 0510-10 min, read-out: inhibition effect (survival rate of cells)", "result": 90.2, "unit": "%"}, {"measurement": "viability at 10 µM", "setting": "[1]; 72 hours, test 0512-10 min, read-out: inhibition effect (survival rate of cells)", "result": 92.8, "unit": "%"}, {"measurement": "viability at 10 µM", "setting": "[1]; 72 hours, test 0515-10 min, read-out: inhibition effect (survival rate of cells)", "result": 83, "unit": "%"}, {"measurement": "viability at 10 µM", "setting": "[1]; 72 hours, test 0517-10 min, read-out: inhibition effect (survival rate of cells)", "result": 72.5, "unit": "%"}, {"measurement": "viability at 10 µM", "setting": "[2]; [12]", "result": 80.1, "unit": "%"}, {"measurement": "viability at 10 µM", "setting": "[2]; 72 hours, test 0524-10 min, read-out: inhibition effect (survival rate of cells)", "result": 82.8, "unit": "%"}, {"measurement": "viability at 10 µM", "setting": "[2]; 72 hours, test 0526-10 min, read-out: inhibition effect (survival rate of cells)", "result": 72.8, "unit": "%"}, {"measurement": "viability at 10 µM", "setting": "[2]; 72 hours, test 0529-10 min, read-out: inhibition effect (survival rate of cells)", "result": 82.7, "unit": "%"}, {"measurement": "viability at 10 µM", "setting": "[2]; 72 hours, test 0531-10 min, read-out: inhibition effect (survival rate of cells)", "result": 81.9, "unit": "%"}, {"measurement": "viability at 10 µM", "setting": "[3]; average of 4 tests, read-out: inhibition effect (survival rate of cells), average", "result": 62.3, "unit": "%"}, {"measurement": "viability at 10 µM", "setting": "[3]; test 1, read-out: inhibition effect (survival rate of cells)", "result": 57.9, "unit": "%"}, {"measurement": "viability at 10 µM", "setting": "[3]; test 2, read-out: inhibition effect (survival rate of cells)", "result": 66.2, "unit": "%"}, {"measurement": "viability at 10 µM", "setting": "[3]; test 3, read-out: inhibition effect (survival rate of cells)", "result": 61, "unit": "%"}, {"measurement": "viability at 10 µM", "setting": "[3]; test 4, read-out: inhibition effect (survival rate of cells)", "result": 64.3, "unit": "%"}, {"measurement": "viability at 10 µM", "setting": "[4]; MCF7, 72 h, MCF7, 10 μM, average of 4 tests, read-out: inhibition effect (survival rate of cells), average", "result": 95.7, "unit": "%"}, {"measurement": "viability at 10 µM", "setting": "[4]; MCF7, MCF7, 10 μM, 72 hours, test 0612-10 min, read-out: inhibition effect (survival rate of cells)", "result": 107, "unit": "%"}, {"measurement": "viability at 10 µM", "setting": "[4]; MCF7, MCF7, 10 μM, 72 hours, test 0614-10 min, read-out: inhibition effect (survival rate of cells)", "result": 88.8, "unit": "%"}, {"measurement": "viability at 10 µM", "setting": "[4]; MCF7, MCF7, 10 μM, 72 hours, test 0616-10 min, read-out: inhibition effect (survival rate of cells)", "result": 80.6, "unit": "%"}, {"measurement": "viability at 10 µM", "setting": "[4]; MCF7, MCF7, 10 μM, 72 hours, test 0619-10 min, read-out: inhibition effect (survival rate of cells)", "result": 106, "unit": "%"}, {"measurement": "viability at 10 µM", "setting": "[5]; HepG2, 72 h, HepG2, 10 μM, average of 4 tests, read-out: inhibition effect (survival rate of cells), average", "result": 84.7, "unit": "%"}, {"measurement": "viability at 10 µM", "setting": "[5]; HepG2, HepG2, 10 μM, 72 hours, test 0524-20 min, read-out: inhibition effect (survival rate of cells)", "result": 88.2, "unit": "%"}, {"measurement": "viability at 10 µM", "setting": "[5]; HepG2, HepG2, 10 μM, 72 hours, test 0526-20 min, read-out: inhibition effect (survival rate of cells)", "result": 85.6, "unit": "%"}, {"measurement": "viability at 10 µM", "setting": "[5]; HepG2, HepG2, 10 μM, 72 hours, test 0529-20 min, read-out: inhibition effect (survival rate of cells)", "result": 90.8, "unit": "%"}, {"measurement": "viability at 10 µM", "setting": "[5]; HepG2, HepG2, 10 μM, 72 hours, test 0531-20 min, read-out: inhibition effect (survival rate of cells)", "result": 74.3, "unit": "%"}, {"measurement": "viability at 10 µM", "setting": "[6]; [12]", "result": 72.7, "unit": "%"}, {"measurement": "viability at 10 µM", "setting": "[6]; 72 h, osteosarcoma cell (U2OS average), read-out: Inhibitory effect", "result": 72.7, "unit": "%"}, {"measurement": "viability at 10 µM", "setting": "[6]; 72 hours, test 6-26-10 min, read-out: inhibition effect (survival rate of cells)", "result": 69.3, "unit": "%"}, {"measurement": "viability at 10 µM", "setting": "[6]; 72 hours, test 6-28-10 min, read-out: inhibition effect (survival rate of cells)", "result": 66.7, "unit": "%"}, {"measurement": "viability at 10 µM", "setting": "[6]; 72 hours, test 6-30-10 min, read-out: inhibition effect (survival rate of cells)", "result": 73, "unit": "%"}, {"measurement": "viability at 10 µM", "setting": "[6]; 72 hours, test 7-3-10 min, read-out: inhibition effect (survival rate of cells)", "result": 81.7, "unit": "%"}, {"measurement": "viability at 10 µM", "setting": "[7]", "result": 65.2, "unit": "%"}, {"measurement": "viability at 10 µM", "setting": "[8]", "result": 82.8, "unit": "%"}, {"measurement": "viability at 10 µM", "setting": "[9]", "result": 86.8, "unit": "%"}, {"measurement": "viability at 10 µM", "setting": "[10]", "result": 63.2, "unit": "%"}, {"measurement": "health status / death of tested mice during the treatment (in words)", "setting": "[11]; both high and low doses", "result": "healthy status during the treatment without death"}, {"measurement": "weight of mice during the experiment (in words)", "setting": "[11]; both low dose and high dose, FIG. 2", "result": "did not show a significant decrease"}, {"measurement": "weight", "setting": "[11]; high dose (200 mg/kg/day) i.p. once daily, Fifth measurement, 200 mg/kg/day", "result": "20 g (2×) and 21 g"}, {"measurement": "weight", "setting": "[11]; high dose (200 mg/kg/day) i.p. once daily, First measurement, 200 mg/kg/day", "result": "20 g (2×) and 19.5 g"}, {"measurement": "weight", "setting": "[11]; high dose (200 mg/kg/day) i.p. once daily, Fourth measurement, 200 mg/kg/day", "result": "20 g (2×) and 21 g"}, {"measurement": "weight", "setting": "[11]; high dose (200 mg/kg/day) i.p. once daily, Second measurement, 200 mg/kg/day", "result": "19 g (2×) and 20 g"}, {"measurement": "weight", "setting": "[11]; high dose (200 mg/kg/day) i.p. once daily, Third measurement, 200 mg/kg/day", "result": "20.5 g and 19 g and 20 g"}, {"measurement": "weight", "setting": "[11]; low dose (100 mg/kg/day) i.p. once daily, Fifth measurement, 100 mg/kg/day", "result": "20 g (2×) and 21 g"}, {"measurement": "weight", "setting": "[11]; low dose (100 mg/kg/day) i.p. once daily, First measurement", "result": 21, "unit": "g"}, {"measurement": "weight", "setting": "[11]; low dose (100 mg/kg/day) i.p. once daily, Fourth measurement, 100 mg/kg/day", "result": "20 g (2×) and 21 g"}, {"measurement": "weight", "setting": "[11]; low dose (100 mg/kg/day) i.p. once daily, Second measurement, 100 mg/kg/day", "result": "20 g (2×) and 19 g"}, {"measurement": "weight", "setting": "[11]; low dose (100 mg/kg/day) i.p. once daily, Third measurement, 100 mg/kg/day", "result": "19.5 g and 19 g and 18.5 g"}]}]}
